Data: patent US20190030039A1, “PREVENTION OF SSRI-INDUCED GASTROINTESTINAL DYSFUNCTION WITH A 5-HT4 RECEPTOR ANTAGONIST” (The Trustees of Columbia University in the City of New York, priority 2016, published 2019)

Tests used:
[1] = at birth; in utero exposure; cited from earlier work
[2] = test system: mice; test: Sucrose preference test, measurement of depression; assay type: in vivo, mouse; settings: FIG. 4
Experimental: FIG. 4 is a bar graph showing results from the sucrose preference test, a measurement of depression in mice. Maternal dams were administered either water (control), Fluoxetine (SSRI), or both Fluoxetine and Piboserod (SSRI+Pibo) from E1 through weaning from breastfeeding. Pups were thus exposed to aforementioned medications during gestation and breastfeeding. Once pups were weaned, at P21, they were not given any medications. The pups were evaluated at 6-8 weeks of age to rule out acute drug effects. For the sucrose preference test, mice were trained for 2 days to drink diluted sucrose and water from serological pipettes with sippers attached and testing was done on day 3. The volumes of sucrose and water consumed overnight were recorded. A reduced preference for sucrose solution over plain water represents anhedonia.
(§1) In the present invention, the serotonin-4 receptor (5-HT4R) has been identified as a critical player in SERT modulation, ENS and CNS development and GI function. […] (FIGS. 1-2). […] Administration of a 5-HT4R antagonist during neurodevelopment thus corrects the long-lasting gastrointestinal motility and behavioral defects caused by developmental exposure to SSRls.

[3] = test system: mice; test: Novelty-suppressed feeding (NSF) test, measurement of anxiety; assay type: in vivo, mouse; settings: FIGS. 3A-3D
Experimental: FIGS. 3A-3D are a series of bar graphs showing results from the novelty-suppressed feeding (NSF) test, a measurement of anxiety. Maternal dams were administered either water (control), Fluoxetine (SSRI), or both Fluoxetine and Piboserod (SSRI+Pibo) from E1 through weaning from breastfeeding. Pups were thus exposed to aforementioned medications during gestation and breastfeeding. Once pups were weaned, at P21, they were not given any medications. The pups were evaluated at 6-8 weeks of age to rule out acute drug effects. The NSF test began with a short term food restriction of 18 hours (water was still available). After the test, mice were given food ad libitum again. The NSF test is a “conflict” test, which assesses the competing motivations of the animal to explore (forage) for food versus remain in the safety of the periphery of the arena. Mice were placed into a white box with shavings on the floor and two food pellets placed on a circle of filter paper in the center of the arena. The latency to chew the food is the measure of anxiety. Measured times included time to reach the filter paper with the food pellet on it (“time to filter”), time to touch/smell the pellet (“time to pellet”), time to bite the pellet (“time to bite”) and time to sit and eat the pellet (“time to sit and eat”). […]

[4] = test system: mice; test: Colonic transit time (glass bead expulsion) in pups exposed during gestation and breastfeeding; assay type: in vivo; settings: Piboserod given to mouse mothers during pregnancy and breastfeeding concomitantly with Fluoxetine; pups evaluated at 6-8 weeks; FIG. 2
Experimental: FIG. 2 is a bar graph showing colonic transit time (expressed as percentage of control). Maternal dams were administered either water (control), Fluoxetine (SSRI), or both Fluoxetine and Piboserod (SSRI+Pibo) from E1 through weaning from breastfeeding. Pups were thus exposed to aforementioned medications during gestation and breastfeeding. Once pups were weaned, at P21, they were not given any medications. Pups were evaluated at 6-8 weeks of age to rule out acute drug effects. Colonic transit time was measured by inserting a 2 mm glass bead 4 cm into the rectum and calculating the time it took for bead expulsion to occur.
as §1

[5] = test system: mice; test: Total intestinal transit time (Rhodamine B bolus) in pups exposed during gestation and breastfeeding; assay type: in vivo; settings: Piboserod given to mouse mothers during pregnancy and breastfeeding concomitantly with Fluoxetine; pups evaluated at 6-8 weeks; FIG. 1
Experimental: FIG. 1 is a bar graph showing total intestinal transit time (expressed as percentage of control). Maternal dams were administered either water (control), Fluoxetine (SSRI), or both Fluoxetine and Piboserod (SSRI+Pibo) from embryonic day 1 (E1) through weaning from breastfeeding. Pups were thus exposed to aforementioned medications during gestation and breastfeeding. Once pups were weaned, at postnatal day 21 (P21), they were not given any medications. Pups were then evaluated at 6-8 weeks of age to rule out acute drug effects. Total intestinal transit time was measured by administering a bolus of Rhodamine B (time 0) and calculating the amount of time until the rhodamine was found in the stool.
as §1

[6] = mice exposed to Fluoxetine in utero and during breastfeeding, evaluated at 6-8 weeks
[7] = mice exposed to Piboserod and Fluoxetine concomitantly in utero and during breastfeeding

| levels of depression (sucrose preference test) [2, 6] | levels of anxiety (novelty-suppressed feeding) [3, 6] | SMILES | plasma Fluoxetine levels in newborns, of maternal levels [1] | colonic motility [4] | depression behavior (sucrose preference test) [2, 7] | total intestinal transit [5] | anxiety behavior (novelty-suppressed feeding) [3, 7] |
| --- | --- | --- | --- | --- | --- | --- | --- |
| increased levels | increased levels | CNCCC(Oc1ccc(C(F)(F)F)cc1)c1ccccc1 (stereo not shown) [Fluoxetine] | approximately 70% |  |  |  |  |
|  |  | CCCCN1CCC(CNC(=O)c2c3n(c4ccccc24)CCCO3)CC1 [Piboserod] |  | comparable with control mice | behaviorally comparable to control mice | comparable with control mice | behaviorally comparable to control mice |
